Test results from patent US6500414B2, “Aromatic dimethicone copolyol polymers as sunscreen agents in personal care applications” (Siltech LLC, priority 2000, dated 2002).

Test: UV maxima for the absorption
Assay type: physicochemical
Settings: spectral region of the absorption
From the text: The following comparison is a common silicone backbone, with differing, “b”, and “c” values. The effect upon solubility at 5% in water and the UV maxima for the absorption are quite dramatic.

- UV absorption region: UV-C region
SMILES: C=CCc1ccc(O)c(OC)c1 [eugenol, 2-methoxy-4-(2 propenyl)phenol]
